This assay addresses BRD4-BD1 (44-164) (Homo sapiens (Human), UniProt O60885). As to the kind of experiment: Alphascreen binding assay BRD4-BD1. Conditions: BRD4(1) H4; read-out: Biochemical activity (IC50 μM) BRD4(1) H4. The procedure: Binding of compounds of formula (I) with bromodomain 2, 3 4 was assessed using Alphascreen binding assay. The inhibition of the interaction between bromodomain and its acetylated target protein (Filippakopoulos P et al. 2012) was measured quantitatively using recombinant BRD proteins, an acetylated Histone 4 peptide and AlphaScreen™ technology. In absence of inhibition the BRD protein bound to AlphaScreen™ nickel chelate acceptor beads can interact with the acetylated Histone 4 peptide which is immobilized by the AlphaScreen™ Streptavidin coated beads. This interaction brings donor and acceptor beads in proximity. The close proximity allows the singlet oxygen produced by laser excitation of the donor beads to reach the acceptor beads and generate a luminescence signal.
Recombinant human bromodomains containing the N-terminal bromodomain (BRD2-BD1 (71-194), BRD3-BD1 (24-144) and BRD4-BD1 (44-164)) or dual bromodomains (BRD4-BD12 (1-477), BRD4-BD12 (1-472)) were prepared and purified as described in protein expression and purification session. The peptide is human Histone H41-21K5AcK8AcK12AcK16Ac-Biotin (Anaspec CA, USA).
Protocol for BRD2, BRD3 and BRD4 assay: All components are prepared in buffer composed of 50 mM HEPES pH 7.5, 100 mM NaCl, 0.01% bovine serum albumin (“BSA”), 0.01% Triton X-100, 2 mM dithiothreitol (“DTT”). 7 μL of Bromodomain protein and 7 μL of peptide are added to wells containing 1 μL of various concentrations of test compounds of formula (I) or DMSO vehicle in an Alphaplate (PerkinElmer GA, USA) and incubated for 1 hour at room temperature. 4 μL donor and acceptor bead mixture is then added with final concentrations of 7.5 μg/ml. 30 minutes after bead addition, Alpha signal is read on the Envision spectrometer (λEx 680 nm, λEm 520-620 nm). Final concentrations of bromodomain proteins and peptide are as shown below.
All data was normalized to the mean of 16 high and 16 low control wells on each plate. A four parameter curve fit of the following formula was then applied: Y=a+(b−a)/(1+(x/c)^d) Where ‘a’ is the minimum, ‘b’ is the maximum, ‘c’ is the pIC50 and ‘d’ is the Hill slope. Protein Expression and Purification
Recombinant human bromodomains containing the N-terminal bromodomain (BRD2-BD1 (71-194), BRD3-BD1 (24-144) and BRD4-BD1 (44-164)) or dual bromodomains (BRD4-BD12 (1-477), BRD4-BD12 (1-472)) were expressed in E. coli cells (in a modified pET vector) with an N-terminal six-His tag and purified using a combination of both IMAC (Ni-affinity) and size exclusion chromatography steps.
Recombinant BRD proteins were expressed using the E. coli strain BL21-CodonPlus (DE3) (Agilent Technologies CA, USA). Cells were grown in Terrific Broth (TB) media to an OD600 of 1.2 at 37° C. at which temperature was reduced to 25° C., protein was induced with 1.0 mM ispropyl-β-D-thiogalactopyranoside (“IPTG”) for 12-18 hours and harvested by centrifugation at 8000×g for 20 minutes. Cells were re-suspended in 0.1M K2PO4 pH 8.0, 250 mM NaCl, 10% Glycerol, 0.75% NP-40, 25 mM Imidazole, 5 mM beta-mercaptoethanol (“BME”) with 0.2 mg/ml Lysosyme, 2.0 mM phenylmethanesulfonyl fluoride (“PMSF”), 25 μg/ml DNAse I, incubated on ice for 30 minutes and lyzed with a cell disruptor (MicroFluidics MA, USA). The lysate was clarified by centrifugation at 20,000×g for 2 hours. The protein was captured with Ni-NTA resin (Life Technologies, USA). Contaminating proteins were washed off with 25 mM Tris-HCl pH 8.3, 250 mM NaCl, 12% Glycerol and 50 mM Imidazole. Following 3× wash steps, protein was eluted step wise using a 50 mM HEPES pH 7.5, 500 mM NaCl and 400 mM Imidazole. The protein was further purified using Gel Filtration column 26/600 Superdex 200 (GE Biosciences NJ, USA) in 50 mM HEPES pH 7.5, 250 mM NaCl. The protein was aliquoted and flash-frozen in liquid Nitrogen.
A general note: Bead proximity is the source of the signal in Alpha formats.

Where only a bound is given, the exact number is not on record here.

As usually defined, the IC50 is the point on the concentration scale where inhibition reaches its midpoint. Consider `Cc1noc(C)c1-c1cnc2[nH]cc(Cc3cccnc3)c2c1` [P-0003, 3,5-dimethyl-4-[3-(3-pyridylmethyl)-1H-pyrrolo[2,3-b]pyridin-5-yl]isoxazole], for which the IC50 is under 1 µM.

Regarding `Cc1noc(C)c1-c1cnc2[nH]c(C)c(Cc3cccnc3)c2c1` [P-0005, 3,5-dimethyl-4-[2-methyl-3-(3-pyridylmethyl)-1H-pyrrolo[2,3-b]pyridin-5-yl]isoxazole], the IC50 is under 1 µM.

On to `Cc1noc(C)c1-c1cnc2[nH]c(-c3ccc(F)cc3)c(Cc3cccnc3)c2c1` [P-0007, 4-[2-(4-fluorophenyl)-3-(3-pyridylmethyl)-1H-pyrrolo[2,3-b]pyridin-5-yl]-3,5-dimethyl-isoxazole], for which the IC50 was under 1 µM.

For the compound `Cc1noc(C)c1-c1cnc2[nH]c(C)c(C(O)c3cccnc3)c2c1` (stereo not shown) [P-0009, [5-(3,5-dimethylisoxazol-4-yl)-2-methyl-1H-pyrrolo[2,3-b]pyridin-3-yl]-(3-pyridyl)methanol], the IC50 was under 1 µM.

Regarding `COc1ncc(F)cc1C(OC)c1c[nH]c2ncc(-c3c(C)noc3C)cc12` (stereo not shown) [P-0011, 4-[3-[(5-fluoro-2-methoxy-3-pyridyl)-methoxy-methyl]-1H-pyrrolo[2,3-b]pyridin-5-yl]-3,5-dimethyl-isoxazole], the IC50 is under 1 µM.

For `Cc1noc(C)c1-c1cnc2[nH]cc(C(O)c3ccc(OCC(F)(F)F)nc3)c2c1` (stereo not shown) [P-0012, [5-(3,5-dimethylisoxazol-4-yl)-1H-pyrrolo[2,3-b]pyridin-3-yl]-[6-(2,2,2-trifluoroethoxy)-3-pyridyl]methanol], the IC50 is under 1 µM.

For the compound `COC(c1ccc(C(F)(F)F)nc1)c1c[nH]c2ncc(-c3c(C)noc3C)cc12` (stereo not shown) [P-0013, 4-[3-[methoxy-[6-(trifluoromethyl)-3-pyridyl]methyl]-1H-pyrrolo[2,3-b]pyridin-5-yl]-3,5-dimethyl-isoxazole], the IC50 is under 1 µM.

Consider `COC(c1c(F)cccc1Cl)c1c[nH]c2ncc(-c3c(C)noc3C)cc12` (stereo not shown) [P-0014, 4-[3[(2-chloro-6-fluoro-phenyl)-methoxy-methyl]-1H-pyrrolo[2,3-b]pyridin-5-yl]-3,5-dimethyl-isoxazole], for which the IC50 is under 1 µM.

Regarding `Cc1noc(C)c1-c1cnc2[nH]cc(C(O)c3ccccc3Cl)c2c1` (stereo not shown) [P-0019, (2-chlorophenyl)-[5-(3,5-dimethylisoxazol-4-yl)-1H-pyrrolo[2,3-b]pyridin-3-yl]methanol], the IC50 was under 1 µM.

`COC(c1ccccc1Cl)c1c[nH]c2ncc(-c3c(C)noc3C)cc12` (stereo not shown) [P-0020, 4-[3-[(2-chlorophenyl)-methoxy-methyl]-1H-pyrrolo[2,3-b]pyridin-5-yl]-3,5-dimethyl-isoxazole]: the IC50 was under 1 µM.

Consider `Cc1noc(C)c1-c1cnc2[nH]cc(C(O)c3c(F)cccc3Cl)c2c1` (stereo not shown) [P-0021, (2-chloro-6-fluoro-phenyl)-[5-(3,5-dimethylisoxazol-4-yl)-1H-pyrrolo[2,3-b]pyridin-3-yl]methanol], for which the IC50 was under 1 µM.

On to `COc1ncc(F)cc1C(O)c1c[nH]c2ncc(-c3c(C)noc3C)cc12` (stereo not shown) [P-0022, [5-(3,5-dimethylisoxazol-4-yl)-1H-pyrrolo[2,3-b]pyridin-3-yl]-(5-fluoro-2-methoxy-3-pyridyl)methanol], for which the IC50 was under 1 µM.

On to `Cc1noc(C)c1-c1cnc2[nH]cc(C3(O)CCC(F)(F)CC3)c2c1` [P-0024, 1-[5-(3,5-dimethylisoxazol-4-yl)-1H-pyrrolo[2,3-b]pyridin-3-yl]-4,4-difluoro-cyclohexanol], for which the IC50 is under 1 µM.

In the case of `COc1ncc(C(O)c2c[nH]c3ncc(-c4c(C)noc4C)cc23)cc1F` (stereo not shown) [P-0025, [5-(3,5-dimethylisoxazol-4-yl)-1H-pyrrolo[2,3-b]pyridin-3-yl]-(5-fluoro-6-methoxy-3-pyridyl)methanol], the IC50 was under 1 µM.

For the compound `Cc1noc(C)c1-c1cnc2[nH]cc(Cc3ccccc3Cl)c2c1` [P-0026, 4-[3-[(2-chlorophenyl)methyl]-1H-pyrrolo[2,3-b]pyridin-5-yl]-3,5-dimethyl-isoxazole], the IC50 was under 1 µM.

For the compound `Cc1noc(C)c1-c1cnc2[nH]cc(Cc3c(F)cccc3Cl)c2c1` [P-0027, 4-[3-[(2-chloro-6-fluoro-phenyl)methyl]-1H-pyrrolo[2,3-b]pyridin-5-yl]-3,5-dimethyl-isoxazole], the IC50 was under 1 µM.

`COc1ncc(F)cc1Cc1c[nH]c2ncc(-c3c(C)noc3C)cc12` [P-0028, 4-[3-[(5-fluoro-2-methoxy-3-pyridyl)methyl)-1H-pyrrolo[2,3-b]pyridin-5-yl]-3,5-dimethyl-isoxazole]: the half-inhibitory concentration (IC50) is under 1 µM.

`Cc1noc(C)c1-c1cnc2[nH]cc(C3=CCC(F)(F)CC3)c2c1` [P-0029, 4-[3-(4,4-difluorocyclo-hexen-1-yl)-1H-pyrrolo[2,3-b]pyridin-5-yl]-3,5-dimethyl-isoxazole]: the IC50 is under 1 µM.

Regarding `Cc1noc(C)c1-c1cnc2[nH]cc(C(O)C3CCC(F)(F)CC3)c2c1` (stereo not shown) [P-0030, (4,4-difluorocyclohexyl)-[5-(3,5-dimethylisoxazol-4-yl)-1H-pyrrolo[2,3-b]pyridin-3-yl]methanol], the IC50 is under 1 µM.

Take `Cc1noc(C)c1-c1cnc2[nH]cc(C(=O)C3CCC(F)(F)CC3)c2c1` [P-0031, (4,4-difluorocyclohexyl)-[5-(3,5-dimethylisoxazol-4-yl)-1H-pyrrolo[2,3-b]pyridin-3-yl]methanone]: the IC50 is under 1 µM.

As for `Cc1noc(C)c1-c1cnc2[nH]cc(CC3CCC(F)(F)CC3)c2c1` [P-0034, 4-[3-[(4,4-difluoro-cyclohexyl)methyl]-1H-pyrrolo[2,3-b]pyridin-5-yl]-3,5-dimethyl-isoxazole], the IC50 is under 1 µM.

As to `CCCCS(=O)(=O)n1ccc2ncc(-c3c(C)noc3C)cc21` [P-0036, 4-(1-butylsulfonylpyrrolo[3,2-b]pyridin-6-yl)-3,5-dimethyl-isoxazole], the IC50 was under 1 µM.

Turning to `Cc1noc(C)c1-c1cnc2ccn(S(=O)(=O)C3CCCC3)c2c1` [P-0037, 4-(1-cyclopentyl-sulfonylpyrrolo[3,2-b]pyridin-6-yl)-3,5-dimethyl-isoxazole], the IC50 is under 1 µM.

Take `Cc1noc(C)c1-c1cnc2ccn(S(=O)(=O)c3ccccc3)c2c1` [P-0038, 4-[1-(benzenesulfonyl)pyrrolo[3,2-b]pyridin-6-yl]-3,5-dimethyl-isoxazole]: the concentration for half-maximal inhibition (IC50) was under 1 µM.

Take `Cc1noc(C)c1-c1cnc2[nH]cc(C(O)c3cccc(OC(F)(F)F)c3)c2c1` (stereo not shown) [P-0039, [5-(3,5-dimethylisoxazol-4-yl)-1H-pyrrolo[2,3-b]pyridin-3-yl]-[3-(trifluoromethoxy)phenyl]methanol]: the IC50 is under 1 µM.

Take `Cc1noc(C)c1-c1cnc2[nH]cc(C(O)c3ccccc3OC(F)F)c2c1` (stereo not shown) [P-0040, [2-(difluoromethoxy)phenyl]-[5-(3,5-dimethylisoxazol-4-yl)-1H-pyrrolo[2,3-b]pyridin-3-yl]methanol]: the IC50 is under 1 µM.

For `Cc1noc(C)c1-c1cnc2[nH]cc(C(O)c3cccc4c3OC(F)(F)O4)c2c1` (stereo not shown) [P-0041, (2,2-difluoro-1,3-benzodioxol-4-yl)-[5-(3,5-dimethylisoxazol-4-yl)-1H-pyrrolo[2,3-b]pyridin-3-yl]methanol], the IC50 was under 1 µM.

With `CCc1[nH]c2ncc(-c3c(C)noc3C)cc2c1C(O)c1ccccc1Cl` (stereo not shown) [P-0042, (2-chlorophenyl)-[5-(3,5-dimethylisoxazol-4-yl)-2-ethyl-1H-pyrrolo[2,3-b]pyridin-3-yl]methanol], the IC50 is under 1 µM.

The values above are taken from patent publication US10519177B2, “Heterocyclic compounds and uses thereof” (Plexxikon Inc., priority 2013, dated 2019).
